Source: ChEMBL document CHEMBL5465560, “Selectivity Literature for EUbOPEN Chemogenomic Library” (2024)

Columns and labels:
[1] = target: T1, Histone-lysine N-methyltransferase SUV39H1 (Homo sapiens) (UniProt O43463); test: Selectivity interaction (Methyltransferase screen (radiometric assays, panel of 8 PRMTs, 21 protein lysine methyltransferases, 3 DNA methyltransferases, and one RNA methyltransferase)) EUB0000271b SUV39H1
T1 sequence (whole entry): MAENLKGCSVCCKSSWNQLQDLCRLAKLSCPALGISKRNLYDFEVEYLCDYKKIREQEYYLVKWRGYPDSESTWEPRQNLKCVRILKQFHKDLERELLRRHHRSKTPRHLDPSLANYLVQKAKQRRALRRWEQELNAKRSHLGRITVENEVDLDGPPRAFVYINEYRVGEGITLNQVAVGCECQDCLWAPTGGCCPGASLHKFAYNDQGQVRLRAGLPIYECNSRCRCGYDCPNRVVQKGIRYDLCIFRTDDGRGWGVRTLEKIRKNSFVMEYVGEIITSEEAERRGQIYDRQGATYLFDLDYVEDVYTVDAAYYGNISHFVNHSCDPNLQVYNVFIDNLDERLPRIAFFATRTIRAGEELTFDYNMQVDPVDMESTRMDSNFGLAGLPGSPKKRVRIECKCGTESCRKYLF

[2] = target: Fibroblast growth factor receptor 1 (Homo sapiens, UniProt P11362); test: Selectivity interaction (Ambit KINOMEscan and KiNATiv profiling in Jurkat cells) EUB0000090b FGFR1; assay type: cell-based; conditions: at 1 µM
[3] = target: Maternal embryonic leucine zipper kinase (Homo sapiens) (UniProt Q14680); test: Selectivity interaction (Ambit KINOMEscan and KiNATiv profiling in Jurkat cells) EUB0000090b MELK; assay type: cell-based; conditions: at 1 µM
Maternal embryonic leucine zipper kinase (Homo sapiens), sequence (Q14680 whole entry, looked up): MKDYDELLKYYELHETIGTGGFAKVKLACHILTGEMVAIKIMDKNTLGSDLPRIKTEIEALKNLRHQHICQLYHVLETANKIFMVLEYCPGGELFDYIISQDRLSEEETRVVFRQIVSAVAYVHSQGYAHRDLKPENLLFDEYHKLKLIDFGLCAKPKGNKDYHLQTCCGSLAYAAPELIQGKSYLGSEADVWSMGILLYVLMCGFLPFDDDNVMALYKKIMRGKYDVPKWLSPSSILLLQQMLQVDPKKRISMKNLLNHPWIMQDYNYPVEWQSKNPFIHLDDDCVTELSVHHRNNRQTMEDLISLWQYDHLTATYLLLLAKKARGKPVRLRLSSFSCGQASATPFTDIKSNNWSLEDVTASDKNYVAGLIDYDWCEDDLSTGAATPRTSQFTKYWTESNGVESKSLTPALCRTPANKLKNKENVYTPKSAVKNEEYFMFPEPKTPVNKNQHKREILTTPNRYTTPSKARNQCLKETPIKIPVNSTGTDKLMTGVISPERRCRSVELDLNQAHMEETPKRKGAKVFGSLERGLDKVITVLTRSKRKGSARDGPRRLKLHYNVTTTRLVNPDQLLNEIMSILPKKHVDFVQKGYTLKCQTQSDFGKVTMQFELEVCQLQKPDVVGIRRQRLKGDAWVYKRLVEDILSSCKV

[4] = target: Dual specificity testis-specific protein kinase 1 (Homo sapiens) (UniProt Q15569); conditions: at 10 µM
[5] = target: Casein kinase I isoform delta (Homo sapiens, UniProt P48730); test: Selectivity interaction (Upstate Kinase Profiler service (Millipore)) EUB0000056c CSNK1D; conditions: at 1 µM
Casein kinase I isoform delta, sequence (P48730 whole entry, looked up, canonical isoform): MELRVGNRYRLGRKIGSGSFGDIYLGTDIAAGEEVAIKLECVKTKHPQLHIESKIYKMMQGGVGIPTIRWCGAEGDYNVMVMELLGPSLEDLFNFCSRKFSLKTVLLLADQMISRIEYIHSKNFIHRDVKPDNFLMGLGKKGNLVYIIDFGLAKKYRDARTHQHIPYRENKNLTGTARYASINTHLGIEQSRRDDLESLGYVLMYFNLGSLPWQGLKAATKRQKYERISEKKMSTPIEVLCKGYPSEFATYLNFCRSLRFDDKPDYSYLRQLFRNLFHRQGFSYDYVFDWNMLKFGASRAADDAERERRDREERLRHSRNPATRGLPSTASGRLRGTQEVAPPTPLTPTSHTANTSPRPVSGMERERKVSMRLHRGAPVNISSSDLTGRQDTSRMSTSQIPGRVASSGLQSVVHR

[6] = target: Dual specificity mitogen-activated protein kinase kinase 2 (Homo sapiens) (UniProt P36507); test: Selectivity interaction (ActivX KiNativ screen (kinase selectivity in THP-1 cell lysates)) EUB0000639a MAP2K2; assay type: subcellular; conditions: lysate, at 0.2 µM
[7] = target: STE20-like serine/threonine-protein kinase (Homo sapiens, UniProt Q9H2G2); test: Selectivity interaction (Kinase panel (Invitrogen)) EUB0000639a SLK; conditions: at 200 nM
[8] = target: T2, Histone-lysine N-methyltransferase EHMT2 (Homo sapiens) (UniProt Q96KQ7); test: Selectivity interaction (Transferase panel (protein, RNA, and DNA methyltransferases. and EP300 (acetyltransferase))) EUB0000270b EHMT2
T2 sequence (whole entry): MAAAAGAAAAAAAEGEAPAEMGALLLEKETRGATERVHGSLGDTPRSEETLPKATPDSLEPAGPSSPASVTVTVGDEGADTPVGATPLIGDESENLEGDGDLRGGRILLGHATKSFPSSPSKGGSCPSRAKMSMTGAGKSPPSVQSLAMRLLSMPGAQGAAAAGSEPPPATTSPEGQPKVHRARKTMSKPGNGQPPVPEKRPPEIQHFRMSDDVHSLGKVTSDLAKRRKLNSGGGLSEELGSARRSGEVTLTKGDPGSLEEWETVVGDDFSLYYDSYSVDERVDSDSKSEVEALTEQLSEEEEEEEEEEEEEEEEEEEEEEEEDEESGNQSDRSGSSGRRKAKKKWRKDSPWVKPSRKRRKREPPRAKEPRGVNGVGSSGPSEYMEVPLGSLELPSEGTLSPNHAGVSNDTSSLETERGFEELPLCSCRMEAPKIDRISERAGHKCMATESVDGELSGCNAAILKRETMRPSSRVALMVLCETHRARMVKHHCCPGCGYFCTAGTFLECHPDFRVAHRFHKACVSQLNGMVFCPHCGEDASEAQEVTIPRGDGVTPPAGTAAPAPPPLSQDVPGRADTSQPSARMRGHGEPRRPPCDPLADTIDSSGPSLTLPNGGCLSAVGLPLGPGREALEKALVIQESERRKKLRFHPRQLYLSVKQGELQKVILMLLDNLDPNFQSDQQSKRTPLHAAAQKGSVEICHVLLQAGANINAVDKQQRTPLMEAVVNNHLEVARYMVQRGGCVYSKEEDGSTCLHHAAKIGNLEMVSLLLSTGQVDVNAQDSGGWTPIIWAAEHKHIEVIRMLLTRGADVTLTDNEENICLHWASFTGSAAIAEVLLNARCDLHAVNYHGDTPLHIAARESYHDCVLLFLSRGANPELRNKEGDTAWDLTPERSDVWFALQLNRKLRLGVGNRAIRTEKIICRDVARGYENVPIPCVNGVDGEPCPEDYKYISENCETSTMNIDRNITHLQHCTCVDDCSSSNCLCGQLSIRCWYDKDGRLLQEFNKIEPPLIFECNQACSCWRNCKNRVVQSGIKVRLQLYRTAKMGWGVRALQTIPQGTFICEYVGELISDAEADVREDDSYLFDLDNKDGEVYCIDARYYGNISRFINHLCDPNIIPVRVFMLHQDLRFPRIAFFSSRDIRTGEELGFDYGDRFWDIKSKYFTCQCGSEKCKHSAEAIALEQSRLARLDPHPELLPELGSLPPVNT

[9] = target: Histone-lysine N-methyltransferase 2A (Homo sapiens) (UniProt Q03164); test: Selectivity interaction (Transferase panel (protein, RNA, and DNA methyltransferases. and EP300 (acetyltransferase))) EUB0000270b MLL
Histone-lysine N-methyltransferase 2A (Homo sapiens), sequence (Q03164 1-2718 limits assumed): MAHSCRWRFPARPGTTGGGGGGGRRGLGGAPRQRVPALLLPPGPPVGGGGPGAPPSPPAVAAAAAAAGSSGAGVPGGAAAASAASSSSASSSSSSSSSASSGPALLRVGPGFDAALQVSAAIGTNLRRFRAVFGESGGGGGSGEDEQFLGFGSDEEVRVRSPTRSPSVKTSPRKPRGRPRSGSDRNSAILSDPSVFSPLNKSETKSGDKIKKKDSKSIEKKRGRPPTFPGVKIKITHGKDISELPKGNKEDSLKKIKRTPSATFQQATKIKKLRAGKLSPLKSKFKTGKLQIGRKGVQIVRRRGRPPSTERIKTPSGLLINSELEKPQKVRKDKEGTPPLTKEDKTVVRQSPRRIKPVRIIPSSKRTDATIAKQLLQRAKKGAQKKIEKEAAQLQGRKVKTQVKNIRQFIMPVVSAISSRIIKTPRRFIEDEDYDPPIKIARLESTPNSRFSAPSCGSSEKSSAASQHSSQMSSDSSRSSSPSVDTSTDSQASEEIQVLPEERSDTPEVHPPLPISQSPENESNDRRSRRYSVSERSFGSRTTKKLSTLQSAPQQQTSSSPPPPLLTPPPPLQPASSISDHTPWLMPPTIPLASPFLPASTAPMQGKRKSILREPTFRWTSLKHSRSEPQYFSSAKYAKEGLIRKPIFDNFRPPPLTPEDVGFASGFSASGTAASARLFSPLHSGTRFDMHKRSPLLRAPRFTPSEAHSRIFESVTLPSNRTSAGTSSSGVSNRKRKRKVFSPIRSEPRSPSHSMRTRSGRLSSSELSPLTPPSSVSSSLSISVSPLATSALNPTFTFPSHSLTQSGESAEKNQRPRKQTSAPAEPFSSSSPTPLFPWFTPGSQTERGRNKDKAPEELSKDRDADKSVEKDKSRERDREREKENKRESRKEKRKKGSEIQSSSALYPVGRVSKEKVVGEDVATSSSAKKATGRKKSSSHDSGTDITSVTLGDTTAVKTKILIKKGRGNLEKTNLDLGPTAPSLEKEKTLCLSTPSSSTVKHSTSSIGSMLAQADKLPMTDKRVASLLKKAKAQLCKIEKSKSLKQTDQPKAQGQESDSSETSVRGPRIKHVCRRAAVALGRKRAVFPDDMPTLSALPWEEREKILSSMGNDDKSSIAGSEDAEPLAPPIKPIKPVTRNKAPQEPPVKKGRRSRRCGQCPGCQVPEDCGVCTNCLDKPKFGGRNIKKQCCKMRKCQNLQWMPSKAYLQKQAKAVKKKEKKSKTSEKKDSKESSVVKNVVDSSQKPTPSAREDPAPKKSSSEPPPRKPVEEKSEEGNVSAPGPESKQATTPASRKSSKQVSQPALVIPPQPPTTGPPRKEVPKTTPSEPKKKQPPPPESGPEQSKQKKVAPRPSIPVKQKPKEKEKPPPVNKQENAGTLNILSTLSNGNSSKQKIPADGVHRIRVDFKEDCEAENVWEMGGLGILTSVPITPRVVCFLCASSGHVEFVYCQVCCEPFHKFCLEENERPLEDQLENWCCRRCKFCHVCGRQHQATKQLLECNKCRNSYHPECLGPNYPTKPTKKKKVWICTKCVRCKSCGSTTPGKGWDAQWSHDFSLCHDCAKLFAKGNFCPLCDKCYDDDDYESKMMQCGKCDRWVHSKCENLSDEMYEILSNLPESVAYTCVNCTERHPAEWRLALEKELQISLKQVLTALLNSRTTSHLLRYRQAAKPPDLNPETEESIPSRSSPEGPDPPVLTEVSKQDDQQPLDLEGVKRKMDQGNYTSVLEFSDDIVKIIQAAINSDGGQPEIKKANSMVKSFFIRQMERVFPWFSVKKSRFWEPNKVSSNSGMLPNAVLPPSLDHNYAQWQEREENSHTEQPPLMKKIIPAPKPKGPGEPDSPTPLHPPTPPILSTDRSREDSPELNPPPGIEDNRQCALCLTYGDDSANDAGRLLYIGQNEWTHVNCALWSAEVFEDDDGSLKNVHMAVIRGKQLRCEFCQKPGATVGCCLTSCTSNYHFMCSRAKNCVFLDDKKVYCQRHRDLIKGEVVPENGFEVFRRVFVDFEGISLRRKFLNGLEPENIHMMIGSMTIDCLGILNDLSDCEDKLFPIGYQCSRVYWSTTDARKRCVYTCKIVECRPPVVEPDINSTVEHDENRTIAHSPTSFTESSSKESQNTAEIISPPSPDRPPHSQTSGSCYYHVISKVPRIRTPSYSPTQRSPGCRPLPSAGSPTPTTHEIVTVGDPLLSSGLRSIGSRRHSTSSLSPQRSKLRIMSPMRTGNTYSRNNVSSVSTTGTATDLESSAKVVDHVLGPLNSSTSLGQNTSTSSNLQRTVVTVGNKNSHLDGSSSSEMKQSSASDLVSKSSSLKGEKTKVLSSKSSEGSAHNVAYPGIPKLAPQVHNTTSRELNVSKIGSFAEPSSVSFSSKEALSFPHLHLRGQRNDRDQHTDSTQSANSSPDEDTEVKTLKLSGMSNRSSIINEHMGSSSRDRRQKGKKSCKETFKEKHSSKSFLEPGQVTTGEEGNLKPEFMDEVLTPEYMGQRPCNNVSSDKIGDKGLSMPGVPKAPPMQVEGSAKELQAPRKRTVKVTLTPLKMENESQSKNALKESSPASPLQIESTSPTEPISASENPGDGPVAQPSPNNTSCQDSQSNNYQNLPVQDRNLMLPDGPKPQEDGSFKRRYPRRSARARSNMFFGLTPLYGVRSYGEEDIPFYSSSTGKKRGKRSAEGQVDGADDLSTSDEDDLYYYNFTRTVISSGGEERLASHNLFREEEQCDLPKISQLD
Histone-lysine N-methyltransferase 2A (Homo sapiens), sequence (Q03164 2719-3969 limits assumed): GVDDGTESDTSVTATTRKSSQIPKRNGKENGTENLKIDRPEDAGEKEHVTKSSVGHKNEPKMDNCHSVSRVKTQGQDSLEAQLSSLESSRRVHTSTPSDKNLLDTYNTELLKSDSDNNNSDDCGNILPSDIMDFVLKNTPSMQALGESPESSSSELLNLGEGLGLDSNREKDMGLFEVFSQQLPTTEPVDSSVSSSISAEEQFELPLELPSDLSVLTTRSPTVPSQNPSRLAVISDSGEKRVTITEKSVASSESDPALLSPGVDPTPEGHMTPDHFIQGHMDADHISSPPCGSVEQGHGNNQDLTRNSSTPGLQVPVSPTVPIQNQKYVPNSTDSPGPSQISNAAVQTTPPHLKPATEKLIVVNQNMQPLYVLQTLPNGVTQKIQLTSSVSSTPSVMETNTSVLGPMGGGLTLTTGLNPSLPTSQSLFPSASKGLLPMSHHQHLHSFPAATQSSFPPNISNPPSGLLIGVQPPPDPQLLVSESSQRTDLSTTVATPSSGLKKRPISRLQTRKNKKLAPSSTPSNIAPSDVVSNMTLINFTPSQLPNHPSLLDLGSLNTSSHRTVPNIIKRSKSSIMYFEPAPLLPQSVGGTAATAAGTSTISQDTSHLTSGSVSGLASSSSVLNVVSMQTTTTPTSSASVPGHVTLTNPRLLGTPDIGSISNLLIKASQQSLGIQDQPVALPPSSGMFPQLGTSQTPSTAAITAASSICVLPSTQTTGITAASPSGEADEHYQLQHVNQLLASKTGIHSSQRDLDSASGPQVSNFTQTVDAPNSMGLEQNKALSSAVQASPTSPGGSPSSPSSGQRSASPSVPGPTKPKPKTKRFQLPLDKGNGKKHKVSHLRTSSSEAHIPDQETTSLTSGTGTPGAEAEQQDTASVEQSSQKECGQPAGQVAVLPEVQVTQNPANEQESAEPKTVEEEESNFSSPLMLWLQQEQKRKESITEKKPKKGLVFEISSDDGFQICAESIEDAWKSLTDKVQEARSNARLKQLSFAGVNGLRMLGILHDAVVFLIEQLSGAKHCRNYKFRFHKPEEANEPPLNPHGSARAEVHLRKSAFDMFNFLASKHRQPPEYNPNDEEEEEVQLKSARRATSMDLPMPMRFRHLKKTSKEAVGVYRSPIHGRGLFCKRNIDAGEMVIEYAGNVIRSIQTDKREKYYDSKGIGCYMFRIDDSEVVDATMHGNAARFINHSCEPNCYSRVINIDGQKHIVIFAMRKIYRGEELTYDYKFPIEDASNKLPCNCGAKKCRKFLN

[10] = target: Transcription initiation factor TFIID subunit 1-like (Homo sapiens) (UniProt Q8IZX4); test: Selectivity interaction (Human bromodomain panel (DSF assay)) EUB0000233b TAF1L
[11] = target: T3, Phosphatidylinositol 5-phosphate 4-kinase type-2 gamma (Homo sapiens) (UniProt Q8TBX8); test: Selectivity interaction (KinomeScan (DiscoverX)) EUB0001550a PIP4K2C; conditions: at 1 µM
T3 sequence (whole entry): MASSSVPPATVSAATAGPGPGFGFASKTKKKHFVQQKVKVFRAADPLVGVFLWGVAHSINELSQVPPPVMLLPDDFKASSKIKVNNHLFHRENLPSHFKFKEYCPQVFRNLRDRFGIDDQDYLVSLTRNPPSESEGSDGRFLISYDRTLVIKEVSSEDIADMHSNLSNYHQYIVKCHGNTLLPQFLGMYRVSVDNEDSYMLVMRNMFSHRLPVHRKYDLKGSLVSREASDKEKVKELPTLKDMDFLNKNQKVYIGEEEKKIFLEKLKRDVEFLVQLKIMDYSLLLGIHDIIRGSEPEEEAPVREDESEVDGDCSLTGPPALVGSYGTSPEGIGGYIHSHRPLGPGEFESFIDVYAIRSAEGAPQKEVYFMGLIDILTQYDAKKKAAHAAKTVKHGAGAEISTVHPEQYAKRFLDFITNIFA

[12] = target: Serine/threonine-protein kinase VRK2 (Homo sapiens) (UniProt Q86Y07); test: Selectivity interaction (KinomeScan (DiscoverX)) EUB0000695a VRK2; conditions: at 100 nM

Compound: Cc1cc(C)cc([C@@H]2c3cc(C)ccc3NC(=O)CN2C(=O)c2ccc(Br)s2)c1
- % of activity ([1]; at 1 µM): 96.7%
- % of activity ([1]; at 10 µM): 91.3%

Compound: CN(C)C/C=C/C(=O)Nc1ccc(C(=O)N2CCCC(Nc3ncc(Cl)c(-c4c[nH]c5ccccc45)n3)C2)cc1 (stereo not given)
- % of control [2]: 82%
- % of control [3]: 75%

Compound: COCC(=O)NC/C=C/c1ccc2ncnc(Nc3ccc(Oc4ccc(C)nc4)c(C)c3)c2c1 [CP-724714]
- % of control [4]: 75%

Compound: Cc1ccc(-c2ccc3c(ccc4sc5c(c43)NC[C@@H](C)NC5=O)n2)cn1
- % of inhibition [5]: -6%

Compound: CC[C@@H]1[C@H](F)C(=O)N[C@@H]1COc1nccc2cc(C(N)=O)c(OC)cc12 [ZIMLOVISERTIB]
- % of inhibition [6]: 11.6%
- % of inhibition [7]: -0.0851%

Compound: Cc1cc(CN)cc(C)c1-c1ncn(C)c1-c1cncn1C
- % activity ([8]; at 1 µM): > 90%
- % activity ([8]; at 10 µM): > 80%
- % activity ([9]; at 1 µM): > 90%
- % activity ([9]; at 10 µM): > 80%

Compound: CN(C)CCCOc1ccc(-c2cc(NCCCn3cccn3)nc(S(C)(=O)=O)n2)cc1
- dTM [10]: < 2 K

Compound: CN(C)CC#Cc1ccc2[nH]c3c(c2c1)-c1nc(N)ncc1CCC3
- % of control [11]: 53%

Compound: Cc1cc(F)c(C(=O)Nc2cccc(-c3nncn3C(C)C)n2)cc1-n1cnc(C2CC2)c1
- % of control [12]: 100%
